Measurements reported in PubChem BioAssay AID212 (DTP/NCI, 2004).
Several values for one entry are separate records, joined by “and”; a condition that tells them apart may be missing. Equal entries are not always repeated. Inconclusive results are not listed. *1 amine or outer side, *2 acyl side, *3 side chain or, on linkers, in order; H or OH if unused. Where a SMILES comes first, the peptide text is derived from it. Bridges are numbered along the chain shown (N, C = ends). Roman numbers before positions name the chains, in order. [ ]: non-standard residue; d: D form. Actinocin(1to9) = Cc1c2oc3c(C)ccc(C(=O)[*:2])c3nc-2c(C(=O)[*:1])c(N)c1=O; NMeV = CN[CH](C(=O)O)C(C)C; Aze = O=C(O)[CH]1CCN1; Sar = CNCC(=O)O

Test system: BDF1 mice, colon carcinoma 38 sc, T/C %
Test: NCI In Vivo Anticancer Drug Screen. Data for tumor model Colon Carcinoma 38 (subcutaneous) in B6D2F1 (BDF1) mice
Summary of the method: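 Transplantable tumor in mice; compound-treated vs vehicle-dosed controls. Measured survival or tumor size; value = T ÷ C.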

[1] = endpoint: median tumor weight (est.), dose: 25.0 mg/kg/injection, schedule: Q07DX002 (ip), vehicle: saline with Tween-80, higher = larger tumour
[2] = endpoint: median tumor weight (est.), dose: 50.0 mg/kg/injection, schedule: Q07DX002 (ip), vehicle: saline with Tween-80, higher = larger tumour
[3] = endpoint: median tumor weight (est.), dose: 100.0 mg/kg/injection, schedule: Q07DX002 (ip), vehicle: saline with Tween-80, higher = larger tumour
[4] = endpoint: median tumor weight (est.), dose: 200.0 mg/kg/injection, schedule: Q07DX002 (ip), vehicle: saline with Tween-80, higher = larger tumour
[5] = endpoint: median tumor weight (est.), dose: 400.0 mg/kg/injection, schedule: Q07DX002 (ip), vehicle: saline with Tween-80, higher = larger tumour
[6] = endpoint: median tumor weight (est.), dose: 25.0 mg/kg/injection, schedule: Q07DX002 (ip), vehicle: saline, higher = larger tumour
[7] = endpoint: median tumor weight (est.), dose: 200.0 mg/kg/injection, schedule: Q07DX002 (ip), vehicle: saline, higher = larger tumour
[8] = endpoint: median tumor weight (est.), dose: 12.5 mg/kg/injection, schedule: Q07DX002 (ip), vehicle: saline with Tween-80, higher = larger tumour

CCCCOC(=O)/C=C(\Br)C(=O)OCCCC
T/C [1]: 76 % of control and 98 % of control
T/C [2]: 71 % of control and 85 % of control
T/C [3]: 84 % of control and 91 % of control
T/C [4]: 81 % of control and 85 % of control
T/C [5]: 69 % of control

Cc1[nH]c(=O)[nH]c(=O)c1N(CCF)CCCl
T/C (endpoint: median tumor weight (est.), dose: 16.0 mg/kg/injection, schedule: Q07DX002 (ip), vehicle: Klucel (hydroxypropylcellulose) (HPC), higher = larger tumour): 69 % of control and 71 % of control
T/C (endpoint: median tumor weight (est.), dose: 32.0 mg/kg/injection, schedule: Q07DX002 (ip), vehicle: Klucel (hydroxypropylcellulose) (HPC), higher = larger tumour): 67 % of control and 79 % of control and 82 % of control
T/C (endpoint: median tumor weight (est.), dose: 64.0 mg/kg/injection, schedule: Q07DX002 (ip), vehicle: Klucel (hydroxypropylcellulose) (HPC), higher = larger tumour): 38 % of control
T/C (endpoint: median tumor weight (est.), dose: 64.0 mg/kg/injection, schedule: Q07DX003 (ip), vehicle: Klucel (hydroxypropylcellulose) (HPC), higher = larger tumour): 21 % of control and 28 % of control

Nc1cc2[nH]cnc2c(=O)[nH]1
T/C (endpoint: median tumor weight (est.), dose: 12.5 mg/kg/injection, schedule: Q07DX002 (ip), vehicle: saline, higher = larger tumour): 66 % of control
T/C [6]: 168 % of control
T/C (endpoint: median tumor weight (est.), dose: 100.0 mg/kg/injection, schedule: Q07DX002 (ip), vehicle: saline, higher = larger tumour): 113 % of control
T/C [7]: 99 % of control
T/C (endpoint: median tumor weight (est.), dose: 400.0 mg/kg/injection, schedule: Q07DX002 (ip), vehicle: saline, higher = larger tumour): 117 % of control

CCOC(OCC)C(=O)OCC(=O)[C@]1(O)Cc2c(O)c3c(c(O)c2[C@@H](OC2CC(N)C(O)C(C)O2)C1)C(=O)c1c(OC)cccc1C3=O (some centres undefined)
T/C (endpoint: median tumor weight (est.), dose: 0.5 mg/kg/injection, schedule: Q07DX002 (ip), vehicle: water, higher = larger tumour): 85 % of control
T/C (endpoint: median tumor weight (est.), dose: 2.0 mg/kg/injection, schedule: Q07DX002 (ip), vehicle: water, higher = larger tumour): 107 % of control
T/C (endpoint: median tumor weight (est.), dose: 4.0 mg/kg/injection, schedule: Q07DX002 (ip), vehicle: water, higher = larger tumour): 88 % of control

O=C1N[C@H]2[C@H](CS[C@H]2CCCCC(=O)N(CCP(c2ccccc2)c2ccccc2)CCP(c2ccccc2)c2ccccc2)N1
T/C (endpoint: median tumor weight (est.), dose: 50.0 mg/kg/injection, schedule: Q07DX002 (ip), vehicle: Klucel (hydroxypropylcellulose) (HPC), higher = larger tumour): 71 % of control
T/C (endpoint: median tumor weight (est.), dose: 100.0 mg/kg/injection, schedule: Q07DX002 (ip), vehicle: Klucel (hydroxypropylcellulose) (HPC), higher = larger tumour): 71 % of control
T/C (endpoint: median tumor weight (est.), dose: 200.0 mg/kg/injection, schedule: Q07DX002 (ip), vehicle: Klucel (hydroxypropylcellulose) (HPC), higher = larger tumour): 91 % of control
T/C (endpoint: median tumor weight (est.), dose: 400.0 mg/kg/injection, schedule: Q07DX002 (ip), vehicle: Klucel (hydroxypropylcellulose) (HPC), higher = larger tumour): 96 % of control
T/C (endpoint: median tumor weight (est.), dose: 800.0 mg/kg/injection, schedule: Q07DX002 (ip), vehicle: Klucel (hydroxypropylcellulose) (HPC), higher = larger tumour): 89 % of control

O=C1c2ccccc2C(=O)c2c3c(cc(NCCNCCO)c21)N(CCO)CCN3
T/C (endpoint: median tumor weight (est.), dose: 100.0 mg/kg/injection, schedule: Q07DX002 (ip), vehicle: DMSO, higher = larger tumour): 96 % of control
T/C (endpoint: median tumor weight (est.), dose: 200.0 mg/kg/injection, schedule: Q07DX002 (ip), vehicle: DMSO, higher = larger tumour): 105 % of control
T/C (endpoint: median tumor weight (est.), dose: 400.0 mg/kg/injection, schedule: Q07DX002 (ip), vehicle: DMSO, higher = larger tumour): 117 % of control

CC(=O)Nc1ccc(C(=O)C=O)cc1
T/C [8]: 62 % of control and 78 % of control
T/C [1]: 87 % of control and 100 % of control
T/C [4]: 92 % of control

CC(=O)Nc1cscc1NC(C)=O
T/C [2]: 115 % of control
T/C [3]: 91 % of control
T/C [4]: 66 % of control
T/C [5]: 93 % of control
T/C (endpoint: median tumor weight (est.), dose: 800.0 mg/kg/injection, schedule: Q07DX002 (ip), vehicle: saline with Tween-80, higher = larger tumour): 73 % of control

Cc1c2oc3c(C)ccc(C(=O)NC4C(=O)NC(C(C)C)C(=O)N5CCCC5C(=O)N(C)CC(=O)N(C)C(C(C)C)C(=O)OC4C)c3nc-2c(C(=O)NC2C(=O)NC(C(C)C)C(=O)N3CCC3C(=O)N(C)CC(=O)N(C)C(C(C)C)C(=O)OC2C)c(N)c1=O (centres undefined) (I: TV[Aze][Sar][NMeV] / II: TVP[Sar][NMeV]; ester I:1-I:C, II:1-II:C; linker I:N-II:N via Actinocin(1to9); configuration not given here)
T/C (endpoint: median tumor weight (est.), dose: 25.0 micrograms/kg/injection, schedule: Q07DX002 (ip), vehicle: saline, higher = larger tumour): 165 % of control
T/C (endpoint: median tumor weight (est.), dose: 37.5 micrograms/kg/injection, schedule: Q07DX002 (ip), vehicle: saline + alcohol, higher = larger tumour): 124 % of control
T/C (endpoint: median tumor weight (est.), dose: 50.0 micrograms/kg/injection, schedule: Q07DX002 (ip), vehicle: saline, higher = larger tumour): 80 % of control
T/C (endpoint: median tumor weight (est.), dose: 200.0 micrograms/kg/injection, schedule: Q07DX002 (ip), vehicle: saline, higher = larger tumour): 93 % of control
T/C (endpoint: median tumor weight (est.), dose: 400.0 micrograms/kg/injection, schedule: Q07DX002 (ip), vehicle: saline, higher = larger tumour): 51 % of control
T/C (endpoint: median tumor weight (est.), dose: 600.0 micrograms/kg/injection, schedule: Q07DX002 (ip), vehicle: saline + alcohol, higher = larger tumour): 48 % of control and 50 % of control and 73 % of control
T/C (endpoint: median tumor weight (est.), dose: 800.0 micrograms/kg/injection, schedule: Q07DX002 (ip), vehicle: saline, higher = larger tumour): 21 % of control

CCCCCC#CC1OC12CCCCC2 (centres undefined)
T/C (endpoint: median tumor weight (est.), dose: 6.25 mg/kg/injection, schedule: Q07DX002 (ip), vehicle: saline, higher = larger tumour): 17 % of control
T/C [8]: 88 % of control
T/C [1]: 122 % of control
T/C [6]: 64 % of control and 66 % of control
T/C [2]: 91 % of control
T/C (endpoint: median tumor weight (est.), dose: 50.0 mg/kg/injection, schedule: Q07DX002 (ip), vehicle: saline, higher = larger tumour): 24 % of control
T/C [3]: 169 % of control
T/C [4]: 103 % of control
T/C [7]: 38 % of control and 41 % of control

C=C1C(=O)OCC1C(=O)O (centres undefined)
T/C (endpoint: median tumor weight (est.), dose: 4.0 mg/kg/injection, schedule: Q07DX002 (ip), vehicle: saline, higher = larger tumour): 290 % of control
T/C (endpoint: median tumor weight (est.), dose: 8.0 mg/kg/injection, schedule: Q07DX002 (ip), vehicle: saline, higher = larger tumour): 281 % of control
T/C (endpoint: median tumor weight (est.), dose: 16.0 mg/kg/injection, schedule: Q07DX002 (ip), vehicle: saline, higher = larger tumour): 297 % of control
T/C (endpoint: median tumor weight (est.), dose: 32.0 mg/kg/injection, schedule: Q07DX002 (ip), vehicle: saline, higher = larger tumour): 278 % of control
T/C (endpoint: median tumor weight (est.), dose: 64.0 mg/kg/injection, schedule: Q07DX002 (ip), vehicle: saline, higher = larger tumour): 344 % of control

FC(F)(F)c1nc2nc(Cl)c(Cl)nc2[nH]1
T/C [1]: 93 % of control

CCC(C)(OC(C)=O)C(=O)OC1C(=O)OC2CC3C(C)=CC(O)C(O)C3(C)C3C4(O)OCC23C1C(C)C4O (centres undefined)
T/C (endpoint: median tumor weight (est.), dose: 0.12 mg/kg/injection, schedule: Q07DX002 (ip), vehicle: saline + alcohol, higher = larger tumour): 80 % of control
T/C (endpoint: median tumor weight (est.), dose: 0.25 mg/kg/injection, schedule: Q07DX002 (ip), vehicle: saline + alcohol, higher = larger tumour): 48 % of control
T/C (endpoint: median tumor weight (est.), dose: 0.5 mg/kg/injection, schedule: Q07DX002 (ip), vehicle: saline + alcohol, higher = larger tumour): 79 % of control
T/C (endpoint: median tumor weight (est.), dose: 1.0 mg/kg/injection, schedule: Q07DX002 (ip), vehicle: saline + alcohol, higher = larger tumour): 43 % of control
T/C (endpoint: median tumor weight (est.), dose: 2.0 mg/kg/injection, schedule: Q07DX002 (ip), vehicle: saline + alcohol, higher = larger tumour): 75 % of control
T/C (endpoint: median tumor weight (est.), dose: 4.0 mg/kg/injection, schedule: Q07DX002 (ip), vehicle: saline + alcohol, higher = larger tumour): 105 % of control

CCC1CCCCN1C(=S)N/N=C(\C)c1ccccn1 (centres undefined)
T/C [1]: 121 % of control

COc1cccc2c1C(=O)c1c(O)c3c(c(O)c1C2=O)CC(O)(C(=O)CO)CC3OC1CC(N)C(O)C(C)O1 (centres undefined)
T/C (endpoint: median survival time, dose: 41.0 mg/kg/injection, schedule: Q07DX002 (iv), vehicle: saline, higher = longer survival): 93 % of control
T/C (endpoint: median survival time, dose: 64.0 mg/kg/injection, schedule: Q07DX002 (iv), vehicle: saline, higher = longer survival): 104 % of control
T/C (endpoint: median survival time, dose: 100.0 mg/kg/injection, schedule: Q07DX002 (iv), vehicle: saline, higher = longer survival): 122 % of control
T/C (endpoint: median survival time, dose: 155.0 mg/kg/injection, schedule: Q07DX002 (iv), vehicle: saline, higher = longer survival): 124 % of control
T/C (endpoint: median tumor weight (est.), dose: 6.25 mg/kg/injection, schedule: Q07DX002 (ip), vehicle: water, higher = larger tumour): 110 % of control
T/C (endpoint: median tumor weight (est.), dose: 12.5 mg/kg/injection, schedule: Q07DX002 (ip), vehicle: water, higher = larger tumour): 100 % of control
T/C (endpoint: median tumor weight (est.), dose: 20.25 mg/kg/injection, schedule: Q07DX002 (ip), vehicle: saline, higher = larger tumour): 51 % of control
T/C [6]: 81 % of control and 86 % of control
T/C (endpoint: median tumor weight (est.), dose: 25.0 mg/kg/injection, schedule: Q07DX002 (ip), vehicle: water, higher = larger tumour): 100 % of control
T/C (endpoint: median tumor weight (est.), dose: 40.5 mg/kg/injection, schedule: Q07DX002 (ip), vehicle: saline, higher = larger tumour): 123 % of control
T/C (endpoint: median tumor weight (est.), dose: 81.0 mg/kg/injection, schedule: Q07DX002 (ip), vehicle: saline, higher = larger tumour): 52 % of control
T/C (endpoint: median tumor weight (est.), dose: 81.0 mg/kg/injection, schedule: Q07DX002 (ip), vehicle: water, higher = larger tumour): 56 % of control
T/C (endpoint: median tumor weight (est.), dose: 100.0 mg/kg/injection, schedule: Q07DX002 (ip), vehicle: water, higher = larger tumour): 83 % of control
T/C (endpoint: median tumor weight (est.), dose: 162.0 mg/kg/injection, schedule: Q07DX002 (ip), vehicle: saline, higher = larger tumour): 44 % of control
T/C [7]: 19 % of control
T/C (endpoint: median tumor weight (est.), dose: 200.0 mg/kg/injection, schedule: Q07DX002 (ip), vehicle: water, higher = larger tumour): 53 % of control
T/C (endpoint: median tumor weight (est.), dose: 324.0 mg/kg/injection, schedule: Q07DX002 (ip), vehicle: saline, higher = larger tumour): 14 % of control
